Test results: ChEMBL document CHEMBL1125617, “N6-substituted adenosine receptor agonists: potential antihypertensive agents” (J Med Chem, 1991)

How the values were obtained:
Rattus norvegicus [1] = experiment: Antihypertensive activity measured as change in blood pressure for a 10-h after 10 mg/kg oral dose in rat; assay type: functional
Adenosine A2 receptor = Adenosine A2 receptor (Rattus norvegicus, UniProt P29276+P30543); experiment: Binding affinity towards adenosine A2 receptor; assay type: protein assay
Adenosine receptor A1 = molecular target: T1, Adenosine receptor A1 (Rattus norvegicus, UniProt P25099); experiment: Binding affinity towards adenosine A1 receptor
T1 sequence (P25099 whole entry): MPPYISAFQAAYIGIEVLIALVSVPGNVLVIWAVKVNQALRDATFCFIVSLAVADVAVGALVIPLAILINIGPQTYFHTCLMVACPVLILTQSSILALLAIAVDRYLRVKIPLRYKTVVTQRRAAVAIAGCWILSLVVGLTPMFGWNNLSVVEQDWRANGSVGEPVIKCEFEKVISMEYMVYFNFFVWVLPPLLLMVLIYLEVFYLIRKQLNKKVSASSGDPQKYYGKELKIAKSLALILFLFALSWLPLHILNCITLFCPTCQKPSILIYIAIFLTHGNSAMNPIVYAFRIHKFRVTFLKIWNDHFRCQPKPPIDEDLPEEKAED

Rattus norvegicus [2] = experiment: Antihypertensive activity measured as change in heart rate was measured for a 10-h after 10 mg/kg oral dose; assay type: functional
[3] = molecular target: Adenosine receptors; A1 & A2 (Rattus norvegicus) (UniProt P29276+P25099+P30543); experiment: Ratio of Ki values of A1 adenosine and A2 adenosine receptor; assay type: protein assay

Row | Compound | Ki (Adenosine A2 receptor) | Ki (Adenosine receptor A1) | Ratio [3] | Change (Rattus norvegicus [1]) | Change (Rattus norvegicus [2]) | Change (Rattus norvegicus [1]; 10 mg/kg) | Change (Rattus norvegicus [2]; 10 mg/kg)
1 | OC[C@H]1O[C@@H](n2cnc3c(NC4CCc5cc(Cl)ccc54)ncnc32)[C@H](O)[C@@H]1O (stereo not given in full) | 1808 nM | 41 nM | 44 | -24% | -24% | – | –
2 | COc1ccc2c(c1)C(Nc1ncnc3c1ncn3[C@@H]1O[C@H](CO)[C@@H](O)[C@H]1O)CCC2 (single isomer, unassigned; isomer A) [listing 1 of 2 here] | – | – | 13.2 | – | – | – | –
3 | OC[C@H]1O[C@@H](n2cnc3c(NC4CCCCc5ccccc54)ncnc32)[C@H](O)[C@@H]1O (stereo not given in full) | 76.9 nM | 17.8 nM | 4.27 | -42% | 28% | – | –
4 | COc1ccc2c(c1)C(Nc1ncnc3c1ncn3[C@@H]1O[C@H](CO)[C@@H](O)[C@H]1O)CCC2 (single isomer, unassigned; isomer B) [listing 1 of 2 here] | 274 nM | 12.1 nM | – | – | – | -44% | 37%
5 | OC[C@H]1O[C@@H](n2cnc3c(N[C@@H]4CCc5ccccc54)ncnc32)[C@H](O)[C@@H]1O | 412 nM | 22.2 nM | 18.6 | -37% | -18% | – | –
6 | CCCCOc1ccc2c(c1)CCC2Nc1ncnc2c1ncn2[C@@H]1O[C@H](CO)[C@@H](O)[C@H]1O (stereo in doubt; 15) [listing 1 of 2 here] | – | – | 126 | – | – | – | –
7 | OC[C@H]1O[C@@H](n2cnc3c(NC4CSc5ccccc5C4)ncnc32)[C@H](O)[C@@H]1O (stereo not given in full) | 229 nM | 3.6 nM | 63.9 | -21% | -33% | – | –
8 | OC[C@H]1O[C@@H](n2cnc3c(NC4CCc5cc6c(cc54)OCO6)ncnc32)[C@H](O)[C@@H]1O (stereo not given in full) | 4539 nM | 50.5 nM | 89.9 | -21% | -21% | – | –
9 | CCCCOc1ccc2c(c1)CCC2Nc1ncnc2c1ncn2[C@@H]1O[C@H](CO)[C@@H](O)[C@H]1O (stereo in doubt; 15) [listing 2 of 2 here] | 5922 nM | 46.9 nM | – | – | – | -46% | -28%
10 | CCCOc1ccc2c(c1)C(Nc1ncnc3c1ncn3[C@@H]1O[C@H](CO)[C@@H](O)[C@H]1O)CCC2 (stereo not given in full) | 48290 nM | 506 nM | 95.5 | <10% | 36% | – | –
11 | OC[C@H]1O[C@@H](n2cnc3c(NC4CCCc5ccccc5C4)ncnc32)[C@H](O)[C@@H]1O (stereo not given in full) | 1234 nM | 25.4 nM | 48.7 | -22% | -32% | – | –
12 | COc1ccc2c(c1)CCCC2Nc1ncnc2c1ncn2[C@@H]1O[C@H](CO)[C@@H](O)[C@H]1O (stereo not given in full) | 2947 nM | 71.5 nM | 41.2 | -30% | <10% | – | –
13 | COc1ccc2c(c1)CCC2Nc1ncnc2c1ncn2[C@@H]1O[C@H](CO)[C@@H](O)[C@H]1O (single isomer, unassigned; isomer A) [listing 1 of 2 here] | – | – | 120 | – | – | – | –
14 | OC[C@H]1OC(n2cnc3c(NCC4=CCCCc5ccccc54)ncnc32)[C@H](O)[C@@H]1O (stereo not given in full) | 1821 nM | 404 nM | 4.5 | <10% | <10% | – | –
15 | COc1cc2c(cc1OC)CC(Nc1ncnc3c1ncn3[C@@H]1O[C@H](CO)[C@@H](O)[C@H]1O)C2 | 1383 nM | 4.98 nM | 278 | -17% | -33% | – | –
16 | COc1ccc2c(c1)C(Nc1ncnc3c1ncn3[C@@H]1O[C@H](CO)[C@@H](O)[C@H]1O)CCC2 (stereo in doubt; 31) [listing 1 of 2 here] | 619 nM | 22.9 nM | – | – | – | -56% | -40%
17 | OC[C@H]1O[C@@H](n2cnc3c(NC4CCCc5c(O)cccc54)ncnc32)[C@H](O)[C@@H]1O (stereo not given in full) | 175 nM | 20.4 nM | 8.6 | <10% | <10% | – | –
18 | OC[C@H]1O[C@@H](n2cnc3c(NC4CCc5ccccc54)ncnc32)[C@H](O)[C@@H]1O (stereo not given in full) | 1120 nM | 45.8 nM | 24.5 | -22% | <10% | – | –
19 | COc1ccc2c(c1)C(Nc1ncnc3c1ncn3[C@@H]1O[C@H](CO)[C@@H](O)[C@H]1O)CCC2 (single isomer, unassigned; isomer B) [listing 2 of 2 here] | – | – | 22.7 | – | – | – | –
20 | COc1ccc2c(c1)CCC2Nc1ncnc2c1ncn2[C@@H]1O[C@H](CO)[C@@H](O)[C@H]1O (single isomer, unassigned; isomer b) [listing 2 of 2 here] | 1450 nM | 41.7 nM | – | – | – | -25% | -11%
21 | COc1ccc2c(c1)CCC2Nc1ncnc2c1ncn2[C@@H]1O[C@H](CO)[C@@H](O)[C@H]1O (single isomer, unassigned; isomer A) [listing 2 of 2 here] | 28260 nM | 236 nM | – | – | – | <10% | <10%
22 | COc1ccc2c(c1)CCC2Nc1ncnc2c1ncn2[C@@H]1O[C@H](CO)[C@@H](O)[C@H]1O (stereo in doubt; 4) [listing 2 of 2 here] | – | – | 73 | – | – | – | –

Now from value to molecule, other results behind:

Row | Ki (Adenosine A2 receptor) | Ki (Adenosine receptor A1) | Ratio [3] | Compound | Change (Rattus norvegicus [1]) | Change (Rattus norvegicus [2]) | Change (Rattus norvegicus [1]; 10 mg/kg) | Change (Rattus norvegicus [2]; 10 mg/kg)
23 | – | – | 34.8 | COc1ccc2c(c1)CCC2Nc1ncnc2c1ncn2[C@@H]1O[C@H](CO)[C@@H](O)[C@H]1O (single isomer, unassigned; isomer b) [listing 1 of 2 here] | – | – | – | –
24 | 2705 nM | 275 nM | 9.8 | OC[C@H]1O[C@@H](n2cnc3c(NCC4(O)CCCCc5ccccc54)ncnc32)[C@H](O)[C@@H]1O (stereo not given in full) | -14% | <10% | – | –
25 | 43440 nM | 425 nM | 102 | CC(C)Oc1ccc2c(c1)C(Nc1ncnc3c1ncn3[C@@H]1O[C@H](CO)[C@@H](O)[C@H]1O)CCC2 (stereo not given in full) | -41% | 27% | – | –
26 | 4350 nM | 59.5 nM | – | COc1ccc2c(c1)CCC2Nc1ncnc2c1ncn2[C@@H]1O[C@H](CO)[C@@H](O)[C@H]1O (stereo in doubt; 4) [listing 1 of 2 here] | – | – | -40% | -33%
27 | 1642 nM | 23.8 nM | 68.9 | OC[C@H]1O[C@@H](n2cnc3c(NC4Cc5ccccc5C4)ncnc32)[C@H](O)[C@@H]1O | -29% | -47% | – | –
28 | – | – | 2370 | CCCCOc1ccc2c(c1)CCC2Nc1ncnc2c1ncn2[C@@H]1O[C@H](CO)[C@@H](O)[C@H]1O (single isomer, unassigned; isomer A) [listing 1 of 2 here] | – | – | – | –
29 | 339 nM | 63.5 nM | 5.3 | OC[C@H]1O[C@@H](n2cnc3c(NC4CCOc5ccccc54)ncnc32)[C@H](O)[C@@H]1O (stereo not given in full) | -21% | 21% | – | –
30 | 163 nM | 22.9 nM | 7.1 | OC[C@H]1O[C@@H](n2cnc3c(N[C@@H]4CCCc5ccccc54)ncnc32)[C@H](O)[C@@H]1O | -57% | -30% | – | –
31 | 218 nM | 23.7 nM | 9.2 | COc1cccc2c1CCCC2Nc1ncnc2c1ncn2[C@@H]1O[C@H](CO)[C@@H](O)[C@H]1O (stereo not given in full) | -52% | -31% | – | –
32 | 3989 nM | 299 nM | 13.3 | OC[C@H]1O[C@@H](n2cnc3c(N[C@H]4CCCc5ccccc54)ncnc32)[C@H](O)[C@@H]1O | -28% | <10% | – | –
33 | 3002 nM | 115 nM | 26.2 | COc1cc2c(cc1OC)C(Nc1ncnc3c1ncn3[C@@H]1O[C@H](CO)[C@@H](O)[C@H]1O)CC2 (stereo not given in full) | -19% | <10% | – | –
34 | 7487 nM | 33.4 nM | 224 | CCOc1ccc2c(c1)CCC2Nc1ncnc2c1ncn2[C@@H]1O[C@H](CO)[C@@H](O)[C@H]1O (stereo not given in full) | -33% | -34% | – | –
35 | – | – | 81.7 | CCCCOc1ccc2c(c1)CCC2Nc1ncnc2c1ncn2[C@@H]1O[C@H](CO)[C@@H](O)[C@H]1O (single isomer, unassigned; isomer B) [listing 1 of 2 here] | – | – | – | –
36 | 9038 nM | 28 nM | 323 | CC(C)COc1ccc2c(c1)CCC2Nc1ncnc2c1ncn2[C@@H]1O[C@H](CO)[C@@H](O)[C@H]1O (stereo not given in full) | -39% | -21% | – | –
37 | 103200 nM | 43.6 nM | – | CCCCOc1ccc2c(c1)CCC2Nc1ncnc2c1ncn2[C@@H]1O[C@H](CO)[C@@H](O)[C@H]1O (single isomer, unassigned; isomer A) [listing 2 of 2 here] | – | – | <10% | 15%
38 | 160 nM | 40.1 nM | 4 | OC[C@H]1O[C@@H](n2cnc3c(NC4CCCc5ccc(O)cc54)ncnc32)[C@H](O)[C@@H]1O (stereo not given in full) | -17% | <10% | – | –
39 | 34060 nM | 2580 nM | – | COc1ccc2c(c1)C(Nc1ncnc3c1ncn3[C@@H]1O[C@H](CO)[C@@H](O)[C@H]1O)CCC2 (single isomer, unassigned; isomer A) [listing 2 of 2 here] | – | – | <10% | <10%
40 | 3946 nM | 48.3 nM | – | CCCCOc1ccc2c(c1)CCC2Nc1ncnc2c1ncn2[C@@H]1O[C@H](CO)[C@@H](O)[C@H]1O (single isomer, unassigned; isomer B) [listing 2 of 2 here] | – | – | -31% | -13%
41 | – | – | 27 | COc1ccc2c(c1)C(Nc1ncnc3c1ncn3[C@@H]1O[C@H](CO)[C@@H](O)[C@H]1O)CCC2 (stereo in doubt; 31) [listing 2 of 2 here] | – | – | – | –
